In patent US12193444B2, “Insecticidal composition and use thereof” (ADAMA MAKHTESHIM LTD., priority 2018, dated 2025):
Counter-ions that a name gives are not always drawn.

Key:
[1] = Accelerated storage stability: degradation of active ingredients after 14 days at 54° C.; type: physicochemical
Description: In some embodiments, the percentage of degradation is calculated based on the percentage of cartap and/or emamectin by weight based on the total weight of the stable composition before and after storage. […]
In addition, two different levels of water content were measured, content (a) less than 0.2% and b) from more than 0.3% to less than 0.5%.
In example 1, the concentrations of the cartap and emamectin were measured after 14 days storage at 54° C.
For GR composition, it was observed that the failed batches are associated with the bulging of the pouch under accelerated storage. For study of accelerated storage at 54° C. for 14 days, the sample is kept in a sealed tri-laminated aluminum pouch and after storage, the visual observations are done to observe the pouch bulging, if any. Comparative rating was done, where more number of stars denotes more bulging. From table 5, it is clear that, for the storage stability samples of pH 5.1, 4.7, 4.1 and 3.5 (for both the processes) samples with water content of less or equal to 0.2% water content by weight based on the total weight of the stable composition, have not shown any bulging.

[2] = cited from earlier work
[3] = pH (1% Aq.) 3.5, water content <0.2 % w/w
[4] = pH (1% Aq.) 3.5, water content >0.3 to <0.5 % w/w
[5] = pH (1% Aq.) 4.1, water content <0.2 % w/w
[6] = pH (1% Aq.) 4.1, water content >0.3 to <0.5 % w/w
[7] = pH (1% Aq.) 4.7, water content <0.2 % w/w
[8] = pH (1% Aq.) 4.7, water content >0.3 to <0.5 % w/w
[9] = pH (1% Aq.) 5.1, water content <0.2 % w/w
[10] = pH (1% Aq.) 5.1, water content >0.3 to <0.5 % w/w
[11] = pH (1% Aq.) 5.5, water content <0.2 % w/w
[12] = pH (1% Aq.) 5.5, water content >0.3 to <0.5 % w/w
[13] = pH (1% Aq.) 5.8, water content <0.2 % w/w
[14] = pH (1% Aq.) 5.8, water content >0.3 to <0.5 % w/w

Q: Which results are given for `CN(C)C(CSC(N)=O)CSC(N)=O` [Cartap Hydrochloride, S,S′-(2-dimethylaminotrimethylene) bis(thiocarbamate)]?
A: % Cartap Hydrochloride degradation (14 days storage, 54° C.) Process 1 [1, 3]: 0%; % Cartap Hydrochloride degradation (14 days storage, 54° C.) Process 2 [1, 3]: 2.27%; % Cartap Hydrochloride degradation (14 days storage, 54° C.) Process 1 [1, 4]: 0%; % Cartap Hydrochloride degradation (14 days storage, 54° C.) Process 2 [1, 4]: 2.80%; % Cartap Hydrochloride degradation (14 days storage, 54° C.) Process 2 [1, 5]: 0.23%; % Cartap Hydrochloride degradation (14 days storage, 54° C.) Process 2 [1, 6]: 2.80%; % Cartap Hydrochloride degradation (14 days storage, 54° C.) Process 1 [1, 7]: 2.46%; % Cartap Hydrochloride degradation (14 days storage, 54° C.) Process 1 [1, 8]: 3.63%; % Cartap Hydrochloride degradation (14 days storage, 54° C.) Process 1 [1, 9]: 2.40%; % Cartap Hydrochloride degradation (14 days storage, 54° C.) Process 2 [1, 9]: 1.67%; % Cartap Hydrochloride degradation (14 days storage, 54° C.) Process 1 [1, 10]: 4.05%; % Cartap Hydrochloride degradation (14 days storage, 54° C.) Process 2 [1, 10]: 1.22%; % Cartap Hydrochloride degradation (14 days storage, 54° C.) Process 1 [1, 11]: 0.00%; % Cartap Hydrochloride degradation (14 days storage, 54° C.) Process 1 [1, 12]: 3.30%; % Cartap Hydrochloride degradation (14 days storage, 54° C.) Process 1 [1, 13]: 3.16%; % Cartap Hydrochloride degradation (14 days storage, 54° C.) Process 2 [1, 13]: 1.09%; % Cartap Hydrochloride degradation (14 days storage, 54° C.) Process 1 [1, 14]: 4.94%; % Cartap Hydrochloride degradation (14 days storage, 54° C.) Process 2 [1, 14]: 6.48%

Q: For “(4″R)-5-O-demethyl-4″-deoxy-4″-(methylamino)avermectin [Emamectin]”, which “% Emamectin degradation (14 Days Storage, 54° C.) Process 1” value [1, 3] is on record?
A: 1.9%

Q: And the “% Emamectin degradation (14 Days Storage, 54° C.) Process 2” value [1, 3]?
A: 4.49%

Q: And the “% Emamectin degradation (14 Days Storage, 54° C.) Process 1” value [1, 4]?
A: 13%

Q: And the “% Emamectin degradation (14 Days Storage, 54° C.) Process 2” value [1, 4]?
A: 13.97%

Q: And the “% Emamectin degradation (14 Days Storage, 54° C.) Process 1” value [1, 5]?
A: 0.95%

Q: What about the “% Emamectin degradation (14 Days Storage, 54° C.) Process 2” value [1, 5] of the same molecule?
A: 2.3%

Q: And the “% Emamectin degradation (14 Days Storage, 54° C.) Process 1” value [1, 6]?
A: 14.45%

Q: And the “% Emamectin degradation (14 Days Storage, 54° C.) Process 2” value [1, 6]?
A: 5.02%

Q: And the “% Emamectin degradation (14 Days Storage, 54° C.) Process 1” value [1, 7]?
A: 6.14%

Q: And the “% Emamectin degradation (14 Days Storage, 54° C.) Process 2” value [1, 7]?
A: 2.38%

Q: And the “% Emamectin degradation (14 Days Storage, 54° C.) Process 1” value [1, 8]?
A: 17.1%

Q: What about the “% Emamectin degradation (14 Days Storage, 54° C.) Process 2” value [1, 8] of the same molecule?
A: 7.31%

Q: What about the “% Emamectin degradation (14 Days Storage, 54° C.) Process 1” value [1, 9] of the same molecule?
A: 7.98%

Q: And the “% Emamectin degradation (14 Days Storage, 54° C.) Process 2” value [1, 9]?
A: 4.49%

Q: What about the “% Emamectin degradation (14 Days Storage, 54° C.) Process 1” value [1, 10] of the same molecule?
A: 12.12%

Q: What about the “% Emamectin degradation (14 Days Storage, 54° C.) Process 2” value [1, 10] of the same molecule?
A: 27.2%

Q: And the “% Emamectin degradation (14 Days Storage, 54° C.) Process 1” value [1, 11]?
A: 8.33%

Q: What about the “% Emamectin degradation (14 Days Storage, 54° C.) Process 2” value [1, 11] of the same molecule?
A: 6.89%

Q: What about the “% Emamectin degradation (14 Days Storage, 54° C.) Process 1” value [1, 12] of the same molecule?
A: 40.96%

Q: And the “% Emamectin degradation (14 Days Storage, 54° C.) Process 2” value [1, 12]?
A: 24.63%

Q: What about the “% Emamectin degradation (14 Days Storage, 54° C.) Process 1” value [1, 13] of the same molecule?
A: 16.7%

Q: What about the “% Emamectin degradation (14 Days Storage, 54° C.) Process 2” value [1, 13] of the same molecule?
A: 20.2%

Q: What about the “% Emamectin degradation (14 Days Storage, 54° C.) Process 1” value [1, 14] of the same molecule?
A: 70.74%

Q: And the “% Emamectin degradation (14 Days Storage, 54° C.) Process 2” value [1, 14]?
A: 26.59%

Q: What about the decomposition of emamectin ([2]; highly unstable, decomposes rapidly) of the same molecule?
A: about 25%

Q: And the stability to hydrolysis ([2]; pH 5, 6, 7 and 8 (25° C.))?
A: stable to hydrolysis
